The source made the active and inactive calls. No cut-off for these calls is given here.
Tests used:
[1] = molecular target: Phosphatidylinositol 4,5-bisphosphate 3-kinase catalytic subunit beta isoform (Homo sapiens, UniProt P42338); assay: Inhibition of PI3Kbeta (unknown origin) expressed in baculovirus expression system by kinase-glo luminescence assay
[2] = molecular target: Phosphatidylinositol 4,5-bisphosphate 3-kinase catalytic subunit alpha isoform (Homo sapiens, UniProt P42336); assay: Inhibition of PI3Kalpha (unknown origin) expressed in baculovirus expression system by kinase-glo luminescence assay
[3] = molecular target: Phosphatidylinositol 4,5-bisphosphate 3-kinase catalytic subunit gamma isoform (Homo sapiens, UniProt P48736); assay: Inhibition of PI3Kgamma (unknown origin) expressed in baculovirus expression system by kinase-glo luminescence assay
[4] = molecular target: T1, Phosphatidylinositol 4,5-bisphosphate 3-kinase catalytic subunit delta isoform (Homo sapiens, UniProt O00329); assay: Inhibition of PI3Kdelta (unknown origin) expressed in baculovirus expression system by kinase-glo luminescence assay
T1 sequence (O00329 whole entry): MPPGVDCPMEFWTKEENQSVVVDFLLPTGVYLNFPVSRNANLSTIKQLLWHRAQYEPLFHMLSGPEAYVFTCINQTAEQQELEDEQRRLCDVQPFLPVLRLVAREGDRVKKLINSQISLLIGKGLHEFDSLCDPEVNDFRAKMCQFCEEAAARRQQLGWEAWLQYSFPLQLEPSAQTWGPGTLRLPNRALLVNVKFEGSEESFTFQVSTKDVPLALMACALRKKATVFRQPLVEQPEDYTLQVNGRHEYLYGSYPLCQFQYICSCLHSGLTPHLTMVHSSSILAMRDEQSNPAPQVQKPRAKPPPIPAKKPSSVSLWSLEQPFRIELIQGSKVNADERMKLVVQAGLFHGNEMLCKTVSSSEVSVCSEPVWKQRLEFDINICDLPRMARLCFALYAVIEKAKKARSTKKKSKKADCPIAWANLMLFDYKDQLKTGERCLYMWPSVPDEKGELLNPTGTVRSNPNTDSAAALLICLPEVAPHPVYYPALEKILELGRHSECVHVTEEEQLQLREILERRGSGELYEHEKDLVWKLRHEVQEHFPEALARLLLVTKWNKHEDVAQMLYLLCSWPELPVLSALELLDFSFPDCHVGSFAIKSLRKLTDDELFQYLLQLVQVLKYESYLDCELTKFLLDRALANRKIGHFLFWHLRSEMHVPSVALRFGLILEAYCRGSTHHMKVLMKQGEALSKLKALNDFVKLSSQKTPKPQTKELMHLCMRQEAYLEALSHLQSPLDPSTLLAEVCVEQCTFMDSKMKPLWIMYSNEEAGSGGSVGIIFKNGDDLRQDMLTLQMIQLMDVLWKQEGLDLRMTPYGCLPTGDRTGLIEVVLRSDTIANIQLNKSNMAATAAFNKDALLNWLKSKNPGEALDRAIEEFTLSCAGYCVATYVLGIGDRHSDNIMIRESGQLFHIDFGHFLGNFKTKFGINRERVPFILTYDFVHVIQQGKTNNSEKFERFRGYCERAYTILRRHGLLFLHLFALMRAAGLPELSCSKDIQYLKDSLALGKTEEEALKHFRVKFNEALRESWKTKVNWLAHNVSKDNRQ

[5] = molecular target: Phosphatidylinositol 4,5-bisphosphate 3-kinase catalytic subunit delta isoform (Homo sapiens, UniProt O00329, N836D); assay: Inhibition of PI3Kdelta N836D mutant (unknown origin) expressed in Sf21 cells co-expressing p85 by kinase-glo luminescence assay
[6] = organism: Homo sapiens; assay: Selectivity ratio of IC50 for PI3Kdelta N836D mutant (unknown origin) expressed in Sf21 cells to IC50 for wild type PI3Kdelta (unknown origin) expressed in baculovirus expression system
[7] = molecular target: T2, Phosphatidylinositol 4,5-bisphosphate 3-kinase catalytic subunit delta isoform (Homo sapiens) (UniProt O00329); assay: Inhibition of PI3Kdelta in human NAMALWA cells assessed as suppression of Akt S473 phosphorylation levels at […] after 2 hrs by Western blot analysis; type: cell-based
T2 sequence (whole entry): T1 sequence (O00329 whole entry)

[8] = Inhibition of PI3Kbeta D862 mutant (unknown origin) expressed in baculovirus expression system by kinase-glo luminescence assay; parameters: species or system Homo sapiens
[9] = organism: Homo sapiens; assay: Selectivity ratio of IC50 for wild type PI3Kbeta (unknown origin) expressed in baculovirus expression system to IC50 for PI3Kbeta D862 mutant (unknown origin) expressed in baculovirus expression system
[10] = Inhibition of PI3Kalpha Q859D mutant (unknown origin) expressed in baculovirus expression system by kinase-glo luminescence assay; parameters: species or system Homo sapiens

Sequence of Phosphatidylinositol 4,5-bisphosphate 3-kinase catalytic subunit delta isoform (Homo sapiens, UniProt O00329, N836D) (O00329 whole entry N836D, canonical isoform): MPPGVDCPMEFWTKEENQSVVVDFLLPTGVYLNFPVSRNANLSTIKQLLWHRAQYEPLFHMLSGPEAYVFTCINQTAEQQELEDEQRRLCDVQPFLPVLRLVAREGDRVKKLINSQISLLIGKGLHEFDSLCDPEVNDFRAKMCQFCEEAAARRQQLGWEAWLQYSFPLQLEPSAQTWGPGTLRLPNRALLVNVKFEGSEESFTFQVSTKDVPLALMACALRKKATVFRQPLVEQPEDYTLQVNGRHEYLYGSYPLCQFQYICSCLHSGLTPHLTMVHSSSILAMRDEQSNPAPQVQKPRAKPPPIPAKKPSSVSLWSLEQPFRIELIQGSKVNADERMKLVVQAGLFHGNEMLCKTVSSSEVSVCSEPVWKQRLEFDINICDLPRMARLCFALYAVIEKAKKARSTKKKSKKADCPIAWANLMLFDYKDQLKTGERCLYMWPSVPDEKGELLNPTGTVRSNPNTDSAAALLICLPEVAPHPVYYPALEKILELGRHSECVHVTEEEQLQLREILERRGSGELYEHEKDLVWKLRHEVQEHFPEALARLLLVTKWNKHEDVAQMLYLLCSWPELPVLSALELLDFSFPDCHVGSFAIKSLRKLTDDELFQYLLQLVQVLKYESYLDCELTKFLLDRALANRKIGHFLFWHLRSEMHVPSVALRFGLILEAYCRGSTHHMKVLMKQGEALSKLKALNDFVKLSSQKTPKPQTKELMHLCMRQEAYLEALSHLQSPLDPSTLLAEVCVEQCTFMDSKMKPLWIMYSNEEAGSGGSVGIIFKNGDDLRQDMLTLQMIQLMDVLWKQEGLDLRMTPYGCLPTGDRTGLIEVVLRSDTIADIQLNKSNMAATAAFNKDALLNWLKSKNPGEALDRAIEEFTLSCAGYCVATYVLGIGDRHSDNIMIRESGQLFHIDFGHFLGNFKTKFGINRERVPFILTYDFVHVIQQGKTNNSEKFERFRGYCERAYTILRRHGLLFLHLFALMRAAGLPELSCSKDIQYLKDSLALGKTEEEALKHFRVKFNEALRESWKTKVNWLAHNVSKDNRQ
Sequence of Phosphatidylinositol 4,5-bisphosphate 3-kinase catalytic subunit beta isoform (P42338 whole entry, canonical isoform): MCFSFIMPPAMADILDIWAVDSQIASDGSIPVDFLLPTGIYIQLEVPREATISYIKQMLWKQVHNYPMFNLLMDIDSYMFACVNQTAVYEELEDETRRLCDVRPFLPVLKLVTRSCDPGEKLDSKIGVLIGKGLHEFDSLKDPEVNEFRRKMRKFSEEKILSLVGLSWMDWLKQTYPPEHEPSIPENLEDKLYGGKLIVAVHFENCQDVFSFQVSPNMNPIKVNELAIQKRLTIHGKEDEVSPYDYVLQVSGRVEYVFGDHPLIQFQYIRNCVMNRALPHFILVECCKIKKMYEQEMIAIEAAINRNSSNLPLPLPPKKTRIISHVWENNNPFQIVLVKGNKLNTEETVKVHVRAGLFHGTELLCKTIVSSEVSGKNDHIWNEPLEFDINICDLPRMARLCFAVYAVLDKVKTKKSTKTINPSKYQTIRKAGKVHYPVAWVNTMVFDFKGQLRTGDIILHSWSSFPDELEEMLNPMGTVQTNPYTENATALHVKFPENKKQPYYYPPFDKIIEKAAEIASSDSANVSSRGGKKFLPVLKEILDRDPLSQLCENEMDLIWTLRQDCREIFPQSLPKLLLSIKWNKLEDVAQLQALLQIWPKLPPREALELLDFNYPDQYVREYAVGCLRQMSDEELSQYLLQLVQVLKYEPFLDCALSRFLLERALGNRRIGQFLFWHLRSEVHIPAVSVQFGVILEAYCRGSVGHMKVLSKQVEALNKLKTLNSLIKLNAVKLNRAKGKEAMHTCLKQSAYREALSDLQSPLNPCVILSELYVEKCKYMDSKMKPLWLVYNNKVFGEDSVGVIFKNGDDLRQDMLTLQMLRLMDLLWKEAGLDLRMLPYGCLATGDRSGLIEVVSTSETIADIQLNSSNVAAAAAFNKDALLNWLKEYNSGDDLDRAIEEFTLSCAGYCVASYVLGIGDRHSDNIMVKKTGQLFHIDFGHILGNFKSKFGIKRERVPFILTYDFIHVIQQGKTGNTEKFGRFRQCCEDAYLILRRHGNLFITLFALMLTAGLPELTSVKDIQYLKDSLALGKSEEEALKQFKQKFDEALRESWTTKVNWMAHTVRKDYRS
Sequence of Phosphatidylinositol 4,5-bisphosphate 3-kinase catalytic subunit alpha isoform (P42336 whole entry, canonical isoform): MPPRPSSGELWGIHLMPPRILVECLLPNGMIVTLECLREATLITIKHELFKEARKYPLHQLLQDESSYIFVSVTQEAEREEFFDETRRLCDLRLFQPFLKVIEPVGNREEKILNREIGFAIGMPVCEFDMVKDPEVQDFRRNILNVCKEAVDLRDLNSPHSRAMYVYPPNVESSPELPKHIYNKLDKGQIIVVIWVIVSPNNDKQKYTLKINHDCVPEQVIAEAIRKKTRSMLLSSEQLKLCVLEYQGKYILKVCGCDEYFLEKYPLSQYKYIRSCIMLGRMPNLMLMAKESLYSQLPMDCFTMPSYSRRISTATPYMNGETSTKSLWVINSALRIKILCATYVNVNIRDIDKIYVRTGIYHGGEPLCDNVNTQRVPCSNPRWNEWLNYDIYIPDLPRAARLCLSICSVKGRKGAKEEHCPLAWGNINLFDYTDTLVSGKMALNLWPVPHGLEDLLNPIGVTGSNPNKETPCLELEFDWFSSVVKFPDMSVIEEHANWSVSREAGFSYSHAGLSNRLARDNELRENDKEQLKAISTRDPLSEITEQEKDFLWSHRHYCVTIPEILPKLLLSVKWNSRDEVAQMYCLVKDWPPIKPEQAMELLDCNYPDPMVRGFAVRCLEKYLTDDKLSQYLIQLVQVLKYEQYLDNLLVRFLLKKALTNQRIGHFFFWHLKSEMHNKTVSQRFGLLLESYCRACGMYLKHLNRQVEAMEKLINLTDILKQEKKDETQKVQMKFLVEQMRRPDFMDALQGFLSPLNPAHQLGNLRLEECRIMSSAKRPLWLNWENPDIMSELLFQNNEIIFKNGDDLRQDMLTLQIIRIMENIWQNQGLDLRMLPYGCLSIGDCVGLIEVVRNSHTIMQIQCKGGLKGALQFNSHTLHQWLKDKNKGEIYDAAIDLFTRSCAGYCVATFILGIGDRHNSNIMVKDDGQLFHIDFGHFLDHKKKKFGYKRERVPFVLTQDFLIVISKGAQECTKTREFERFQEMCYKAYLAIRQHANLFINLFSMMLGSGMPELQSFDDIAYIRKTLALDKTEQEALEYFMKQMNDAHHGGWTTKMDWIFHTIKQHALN
Sequence of Phosphatidylinositol 4,5-bisphosphate 3-kinase catalytic subunit gamma isoform (P48736 whole entry, canonical isoform): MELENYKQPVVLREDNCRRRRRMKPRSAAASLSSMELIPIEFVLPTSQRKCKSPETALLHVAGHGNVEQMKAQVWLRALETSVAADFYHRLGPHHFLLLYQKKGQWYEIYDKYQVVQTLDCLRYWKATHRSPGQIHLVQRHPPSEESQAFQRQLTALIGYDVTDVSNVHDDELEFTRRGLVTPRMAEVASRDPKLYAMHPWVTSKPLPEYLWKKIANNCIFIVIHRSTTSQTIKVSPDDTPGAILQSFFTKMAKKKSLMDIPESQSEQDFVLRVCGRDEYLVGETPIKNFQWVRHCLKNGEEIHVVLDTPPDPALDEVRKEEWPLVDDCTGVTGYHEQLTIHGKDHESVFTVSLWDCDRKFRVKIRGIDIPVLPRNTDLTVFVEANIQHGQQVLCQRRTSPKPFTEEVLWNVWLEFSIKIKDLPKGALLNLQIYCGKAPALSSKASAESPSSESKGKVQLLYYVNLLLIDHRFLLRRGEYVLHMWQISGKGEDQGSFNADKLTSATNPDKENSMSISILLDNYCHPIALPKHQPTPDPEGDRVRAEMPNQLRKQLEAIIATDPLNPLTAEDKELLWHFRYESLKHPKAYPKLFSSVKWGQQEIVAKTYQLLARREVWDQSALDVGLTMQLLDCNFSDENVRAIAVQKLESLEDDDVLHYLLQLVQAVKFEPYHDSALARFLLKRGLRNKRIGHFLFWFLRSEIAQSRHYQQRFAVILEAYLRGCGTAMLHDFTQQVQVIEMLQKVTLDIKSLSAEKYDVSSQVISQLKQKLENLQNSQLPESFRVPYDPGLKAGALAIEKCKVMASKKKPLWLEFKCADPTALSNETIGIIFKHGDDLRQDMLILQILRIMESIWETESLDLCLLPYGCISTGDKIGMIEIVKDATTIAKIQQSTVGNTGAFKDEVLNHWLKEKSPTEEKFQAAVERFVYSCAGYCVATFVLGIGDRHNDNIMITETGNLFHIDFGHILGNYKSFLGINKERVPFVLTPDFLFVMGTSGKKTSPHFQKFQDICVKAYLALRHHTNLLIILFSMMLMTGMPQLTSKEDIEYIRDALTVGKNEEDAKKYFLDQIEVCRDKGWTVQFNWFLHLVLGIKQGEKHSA

## NC(=O)CNC(=O)C1CCN(c2nc(N3CCOCC3)nc(-n3c(C(F)F)nc4ccccc43)n2)CC1
[1]
  IC50: 0.329 µM
[2]
  IC50: 0.098 µM
[3]
  IC50: 0.496 µM
[4]
  IC50: 0.066 µM
[5]
  IC50: 0.171 µM
[6]
  Ratio IC50: 2.6

## N[C@H]1CC[C@@H](C(=O)N2CCN(c3nc(N4CCOCC4)nc(-n4c(C(F)F)nc5ccccc54)n3)CC2)CC1
[1]
  IC50: 3.36 µM
[2]
  IC50: 3.9 µM
[3]
  IC50: > 10 µM
[4]
  IC50: 0.143 µM

## O=C([C@H]1CCCN1)N1CCN(c2nc(N3CCOCC3)nc(-n3c(C(F)F)nc4ccccc43)n2)CC1
[7]
  inhibition: Active
[2]
  IC50: 2.61 µM
[3]
  IC50: 5.86 µM
[5]
  IC50: 0.009 µM

## O=C([C@H]1CCCCN1)N1CCN(c2nc(N3CCOCC3)nc(-n3c(C(F)F)nc4ccccc43)n2)CC1
[1]
  IC50: 0.775 µM
[2]
  IC50: 2.37 µM
[3]
  IC50: 3.59 µM
[4]
  IC50: 0.05 µM
[5]
  IC50: 0.036 µM

## NC(=O)[C@H](Cc1ccccc1)NC(=O)[C@H]1CCCN(c2nc(N3CCOCC3)nc(-n3c(C(F)F)nc4ccccc43)n2)C1
[1]
  IC50: 0.342 µM
[2]
  IC50: 0.358 µM
[3]
  IC50: 1.98 µM
[4]
  IC50: 0.057 µM

## C[C@@H](NC(=O)C1CCN(c2nc(N3CCOCC3)nc(-n3c(C(F)F)nc4ccccc43)n2)CC1)C(N)=O
[1]
  IC50: 0.601 µM
[7]
  inhibition: Active
[2]
  IC50: 0.114 µM
[8]
  IC50: 0.123 µM
[9]
  Ratio IC50: 5
[10]
  IC50: 0.1 µM
[3]
  IC50: 0.536 µM
[4]
  IC50: 0.044 µM
[5]
  IC50: 1.9 µM
[6]
  Ratio IC50: 43

## O=C([C@@H]1CCCCN1)N1CCN(c2nc(N3CCOCC3)nc(-n3c(C(F)F)nc4ccccc43)n2)CC1
[1]
  IC50: 0.059 µM
[2]
  IC50: 2.86 µM
[3]
  IC50: 5.53 µM
[4]
  IC50: 0.069 µM
[5]
  IC50: 0.024 µM

## O=C(C[C@@H]1CCCN1)N1CCN(c2nc(N3CCOCC3)nc(-n3c(C(F)F)nc4ccccc43)n2)CC1
[1]
  IC50: 0.146 µM
[2]
  IC50: 2.05 µM
[3]
  IC50: 5.76 µM
[4]
  IC50: 0.022 µM
[5]
  IC50: 0.007 µM

## NC(=O)CNC(=O)[C@H]1CCCN(c2nc(N3CCOCC3)nc(-n3c(C(F)F)nc4ccccc43)n2)C1
[1]
  IC50: 0.024 µM
[2]
  IC50: 0.032 µM
[3]
  IC50: 0.194 µM
[4]
  IC50: 0.034 µM
[5]
  IC50: 0.095 µM
[6]
  Ratio IC50: 3

## NC(=O)[C@H](Cc1ccccc1)NC(=O)[C@@H]1CCCN(c2nc(N3CCOCC3)nc(-n3c(C(F)F)nc4ccccc43)n2)C1
[1]
  IC50: 1.72 µM
[2]
  IC50: 0.908 µM
[3]
  IC50: 1.38 µM
[4]
  IC50: 0.263 µM

## O=C(O)[C@H]1CCCN(c2nc(N3CCOCC3)nc(-n3c(C(F)F)nc4ccccc43)n2)C1
[1]
  IC50: 0.215 µM
[2]
  IC50: 0.04 µM
[3]
  IC50: 0.231 µM
[4]
  IC50: 0.042 µM

## C[C@H](NC(=O)C1CCN(c2nc(N3CCOCC3)nc(-n3c(C(F)F)nc4ccccc43)n2)CC1)C(N)=O
[1]
  IC50: 0.207 µM
[2]
  IC50: 0.123 µM
[3]
  IC50: 0.434 µM
[4]
  IC50: 0.04 µM

## O=C(O)[C@@H]1CCCN(c2nc(N3CCOCC3)nc(-n3c(C(F)F)nc4ccccc43)n2)C1
[1]
  IC50: 0.428 µM
[2]
  IC50: 0.183 µM
[3]
  IC50: 0.247 µM
[4]
  IC50: 0.163 µM

## O=C([C@@H]1CCCN1)N1CCN(c2nc(N3CCOCC3)nc(-n3c(C(F)F)nc4ccccc43)n2)CC1
[7]
  inhibition: Active

## NC(=O)CNC(=O)[C@@H]1CCCN(c2nc(N3CCOCC3)nc(-n3c(C(F)F)nc4ccccc43)n2)C1
[1]
  IC50: 0.166 µM
[2]
  IC50: 0.083 µM
[3]
  IC50: 0.445 µM
[4]
  IC50: 0.038 µM

## NC(=O)[C@H](CO)NC(=O)C1CCN(c2nc(N3CCOCC3)nc(-n3c(C(F)F)nc4ccccc43)n2)CC1
[1]
  IC50: 0.162 µM
[2]
  IC50: 0.067 µM
[3]
  IC50: 0.521 µM
[4]
  IC50: 0.029 µM

## O=C(O)C1CCN(c2nc(N3CCOCC3)nc(-n3c(C(F)F)nc4ccccc43)n2)CC1
[1]
  IC50: 0.217 µM
[2]
  IC50: 0.183 µM
[3]
  IC50: 0.064 µM
[4]
  IC50: 0.038 µM

## NC(=O)[C@H](Cc1ccccc1)NC(=O)C1CCN(c2nc(N3CCOCC3)nc(-n3c(C(F)F)nc4ccccc43)n2)CC1
[1]
  IC50: 0.513 µM
[2]
  IC50: 0.19 µM
[3]
  IC50: 0.708 µM
[4]
  IC50: 0.044 µM

## O=C(CN1CCN(c2nc(N3CCOCC3)nc(-n3c(C(F)F)nc4ccccc43)n2)CC1)[C@H]1CCCN1
[1]
  IC50: 0.06 µM
[2]
  IC50: 1.77 µM
[3]
  IC50: 6.08 µM
[4]
  IC50: 0.052 µM
[5]
  IC50: 0.004 µM

## CC(C)[C@H](NC(=O)C1CCN(c2nc(N3CCOCC3)nc(-n3c(C(F)F)nc4ccccc43)n2)CC1)C(N)=O
[1]
  IC50: 0.602 µM
[2]
  IC50: 0.191 µM
[3]
  IC50: 0.44 µM
[4]
  IC50: 0.144 µM
